Series [1] deals with T1, Fαi1GDPβ1γ2 heterotrimer (UniProt P54311+P63212).
T1 construct: made in house; host or cells: b-βγ: Sf9 insect cells
Kind of series: Dissociation of Fαi1 from preformed Fαi1β1γ2 heterotrimer (flow cytometry). Format: binding. The settings on record: result in words. For orientation: A flow cytometer gives signals particle by particle.

Series [2] deals with T2, Gαi1-Gβ1γ2 interaction (UniProt P54311+P63212).
T2 construct: made in house; host or cells: b-βγ: Sf9 insect cells
In words: Flow cytometry competition for FITC-Gαi1 binding to immobilized b-Gβ1γ2. The method, then:
(2003) supra; Sarvazyan, et al. (1998) J. Biol. […] Fluorescein-labeled Ga^ (Fan) was prepared in accordance with standard methods (Sarvazyan, et al. (1998) supra). Assays were used to determine peptide effects on Gα-Gβγ interactions included competition and dissociation assays (Ghosh, et al. (2003) supra). […] The bead-associated fluorescence was then recorded in a BD Biosciences […] flow cytometer. Data was corrected for background fluorescence and fit with a sigmoid dose response curve using Graph Pad Prism 4. To measure dissociation of Fan from b-Gβaγ2, 100 pM of Fa^ was incubated with 50 pM immobilized b-Gβ1γ2 at room temperature for 15-20 minutes.

Series [3] has as its system naloxone-precipitated morphine withdrawal in mice. Kind of series: Acute morphine physical dependence (naloxone-precipitated jumping). Format: in vivo, mouse. The note with it: morphine 100 mg/kg s.c. −4 hr; M119 100 nmol i.c.v. 30 min before naloxone 10 mg/kg i.p. The method, then: Prior to the administration of naloxone (30 min) mice were injected with vehicle, i.c.v. Withdrawal was precipitated by an injection of the opioid antagonist, naloxone (10 mg/kg, i.p.). Mice were immediately placed in a clear cylinder and observed for 15 min. The number of vertical jumps was recorded during this time.

For series [4] the following is noted: 250 mg/kg/day for two weeks, delivered by the NCI; cited from earlier work.
Series [5] has as its system N-type Ca^2+ channels. In words: Norepinephrine-dependent inhibition of N-type Ca2+ channels in rat superior cervical ganglion neurons (patch clamp). Format: cell-based. The settings on record: initial analysis; result in words. The method, then:
Norepinephrine inhibits N-type Ca^2+ channels through a Gβγ dependent mechanism in SCG neurons and activates GIRK channels when they are heterologously expressed. Neurons are pretreated with varying concentrations of compounds (either in the bath or included in the patch pipette), and NE dependent inhibition of N-type Ca^2+ channels are measured in the whole cell patch clamp configuration. […] This voltage dependence is diagnostic of Gβγ-mediated modulation. The “facilitation” ratio of the postpulse current to the prepulse current (during which inhibition is strong) provides a quantitative measure of the degree of Gβγ modulation. Uninhibited currents generally have a facilitation ratio around 1 so cells pretreated with compounds that inhibit Gβγ interactions with the channel causes the facilitation ratio to approach 1. The effects on responses to other receptors such as transfected μ-opioid receptors or endogenous M4 muscarinic receptors are also examined. GIRK channel regulation is assessed by microinjecting GIRK1/2 subunits in SCG neurons and measuring K^+ channel regulation by NE at varying concentrations of compound. Basal K^+ channel activity and Ca^2+ channel activity is assessed to look for non-specific effects of Gβγ blockers. […]
On the technique in general: Patch clamp records ionic current or voltage across a cell membrane.

The source of these data is patent publication US8975259B2, “Compositions and methods for inhibiting G protein signaling” (University of Rochester, priority 2007, dated 2015).

One may read the IC50 as the point on the concentration scale where inhibition reaches its midpoint. A low value points to inhibition by little substance.

For `O=C(O)C1CCCCC1c1c2ccc(=O)c(O)c-2oc2c(O)c(O)ccc12` (stereo not drawn) [Compound M119, cyclohexanecarboxylic acid, 2-(4,5,6-trihydroxy-3-oxo-3H-xanthen-9-yl)-(9cl)], the “promotion/acceleration of heterotrimer dissociation” value in series [1] is reported as “did not promote dissociation”. In addition, the IC50 in series [2] came to 400 nM. In addition, the “interactions of Gα subunit with Gβγ subunits” value in series [2] (result in words) was “blocked”. Besides, in series [3], the “number of vertical jumps in the 15-min counting period” value is 23±14. In series [4], the toxicity result is recorded as “no reported overt evidence of toxicity”. Besides, in series [5], the “effect on NE dependent inhibition of N-type Ca^2+ channels” value is “unaffected”.
